From patent US20100267561A1, “HERBICIDAL PYRIDAZINONE DERIVATIVES” (priority 2007, published 2010)

Experiments:
Assay type in all cases: in vivo
corn (Zea mays) = experiment: Test A pre-/postemergence plant response
How it was run: (§1)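 Ratings run 0–100 (100 = complete control), assigned visually against untreated controls roughly 10 days after treatment in a greenhouse. Compounds, formulated in non-phytotoxic solvent containing surfactant, were applied as a soil-directed preemergence spray and concurrently postemergence to one- to two-leaf plants 2–10 cm tall.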

[1] = test system: giant foxtail (Setaria faberi); experiment: Test A pre-/postemergence plant response
How it was run: as §1

[2] = test system: yellow nutsedge (Cyperus esculentus); experiment: Test B pre-/postemergence plant response
How it was run: (§2)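 Visual scoring from 0 (no effect) to 100 (complete control) against untreated controls was done 13 to 15 days after greenhouse treatment. Chemicals were formulated in a surfactant-containing non-phytotoxic solvent and applied to soil preemergence or to 1- to 4-leaf (2-18 cm) plants postemergence.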

[3] = test system: wheat (Triticum aestivum); experiment: Test B pre-/postemergence plant response
How it was run: as §2

[4] = test system: Italian ryegrass (Lolium multiflorum); experiment: Test B pre-/postemergence plant response
How it was run: as §2

[5] = test system: johnsongrass (Sorghum halepense); experiment: Test B pre-/postemergence plant response
How it was run: as §2

[6] = test system: bermudagrass (Cynodon dactylon); experiment: Test B pre-/postemergence plant response; conditions: for Bermudagrass plant response rating: 8 g ai/ha
How it was run: as §2

kochia (Kochia scoparia) = experiment: Test B pre-/postemergence plant response; conditions: for Kochia plant response rating: postemergence, 0-100 scale; for Plant response rating, Kochia: Postemergence
How it was run: as §2

soybean (Glycine max) = experiment: Test B pre-/postemergence plant response
How it was run: as §2

[7] = test system: eastern black (E.B.) nightshade (Solanum ptycanthum); experiment: Test B pre-/postemergence plant response; conditions: Preemergence; for Nightshade, E. B. plant response rating: scale 0 to 100
How it was run: as §2

[8] = test system: velvetleaf (Abutilon theophrasti); experiment: Test B pre-/postemergence plant response
How it was run: as §2

[9] = test system: common (oilseed) sunflower (Helianthus annuus); experiment: Test B pre-/postemergence plant response; conditions: Preemergence; for Sunflower plant response rating: scale 0 to 100
How it was run: as §2

[10] = Postemergence, 31 g ai/ha, 0 to 100 scale, 0 no effect, 100 complete control
[11] = Postemergence, 125 g ai/ha, 0 to 100 scale, 0 no effect, 100 complete control
[12] = Preemergence, 125 g ai/ha, 0 to 100 scale (0 no effect, 100 complete control)
[13] = 8 g ai/ha, postemergence, 0-100 scale
[14] = 16 g ai/ha, postemergence, 0-100 scale
[15] = Postemergence, 31 g ai/ha, scale 0 to 100
[16] = Postemergence, 62 g ai/ha, scale 0 to 100, 0 no effect, 100 complete control
[17] = Preemergence, 31 g ai/ha, scale 0 to 100 (0 no effect, 100 complete control)
[18] = Preemergence, 62 g ai/ha, 0 to 100 scale, 0 no effect, 100 complete control
[19] = Preemergence, 8 g ai/ha, scale 0 to 100
[20] = Preemergence, 16 g ai/ha, scale 0 to 100
[21] = 31 g ai/ha, scale 0 to 100 (0 no effect, 100 complete control)
[22] = 62 g ai/ha, 0 to 100 scale, 0 no effect, 100 complete control

## CCc1cc(-c2ccc(Br)cc2)nn1-c1c(O)c(C)nn(C)c1=O [Compound 74]
Corn (Zea mays); [10]
  Plant response rating, Corn: 60
Corn (Zea mays); [11]
  Plant response rating, Corn: 100
Corn (Zea mays); [12]
  Plant response rating, Corn: 60
[1]; [10]
  Plant response rating, Foxtail, Giant: 70
[1]; [11]
  Plant response rating, Foxtail, Giant: 100
[1]; Preemergence, 31 g ai/ha, 0 to 100 scale, 0 is no effect, 100 is complete control
  Plant response rating, Foxtail, Giant: 90
[1]; [12]
  Plant response rating, Foxtail, Giant: 100
[2]; [13]
  Nutsedge, Yellow plant response rating: 0
[2]; [14]
  Nutsedge, Yellow plant response rating: 0
[2]; [15]
  Plant response rating, Nutsedge, Yellow: 0
[2]; [16]
  Plant response rating, Nutsedge, Yellow: 0
[2]; [17]
  Plant response rating, Nutsedge, Yellow: 0
[2]; [18]
  Plant response rating, Nutsedge, Yellow: 0
[2]; [19]
  Nutsedge, Yellow plant response rating: 0
[2]; [20]
  Nutsedge, Yellow plant response rating: 0
[3]; [13]
  Wheat plant response rating: 40
[3]; [14]
  Wheat plant response rating: 70
[3]; [15]
  Plant response rating, Wheat: 90
[3]; [16]
  Plant response rating, Wheat: 95
[3]; [17]
  Plant response rating, Wheat: 25
[3]; [18]
  Plant response rating, Wheat: 85
[3]; [20]
  Wheat plant response rating: 0
[4]; [13]
  Ryegrass, Italian plant response rating: 98
[4]; [14]
  Ryegrass, Italian plant response rating: 100
[4]; [15]
  Plant response rating, Ryegrass, Italian: 100
[4]; [16]
  Plant response rating, Ryegrass, Italian: 100
[4]; [17]
  Plant response rating, Ryegrass, Italian: 100
[4]; [18]
  Plant response rating, Ryegrass, Italian: 100
[4]; [19]
  Ryegrass, Italian plant response rating: 60
[4]; [20]
  Ryegrass, Italian plant response rating: 98
[5]; [13]
  Johnsongrass plant response rating: 98
[5]; [14]
  Johnsongrass plant response rating: 98
[5]; [15]
  Plant response rating, Johnsongrass: 100
[5]; [16]
  Plant response rating, Johnsongrass: 100
[5]; [17]
  Plant response rating, Johnsongrass: 90
[5]; [18]
  Plant response rating, Johnsongrass: 100
[5]; [19]
  Johnsongrass plant response rating: 70
[5]; [20]
  Johnsongrass plant response rating: 85
[6]; postemergence, 0-100 scale
  Bermudagrass plant response rating: 20
[6]; Postemergence, 16 g ai/ha, scale 0 to 100
  Plant response rating, Bermudagrass: 85
[6]; [15]
  Plant response rating, Bermudagrass: 95
[6]; [16]
  Plant response rating, Bermudagrass: 98
[6]; Preemergence, scale 0 to 100 (0 no effect, 100 complete control)
  Bermudagrass plant response rating: 100
[6]; Preemergence, 16 g ai/ha, scale 0 to 100 (0 no effect, 100 complete control)
  Plant response rating, Bermudagrass: 100
[6]; [17]
  Plant response rating, Bermudagrass: 100
[6]; [18]
  Plant response rating, Bermudagrass: 100
Kochia (Kochia scoparia); 8 g ai/ha
  Kochia plant response rating: 0
Kochia (Kochia scoparia); 16 g ai/ha
  Kochia plant response rating: 0
Kochia (Kochia scoparia); 31 g ai/ha, scale 0 to 100
  Plant response rating, Kochia: 0
Kochia (Kochia scoparia); 62 g ai/ha, scale 0 to 100, 0 no effect, 100 complete control
  Plant response rating, Kochia: 0
Soybean (Glycine max); [13]
  Soybean plant response rating: 0
Soybean (Glycine max); [14]
  Soybean plant response rating: 0
Soybean (Glycine max); [15]
  Plant response rating, Soybean: 0
Soybean (Glycine max); [16]
  Plant response rating, Soybean: 0
Soybean (Glycine max); [17]
  Plant response rating, Soybean: 0
Soybean (Glycine max); [18]
  Plant response rating, Soybean: 0
Soybean (Glycine max); [19]
  Soybean plant response rating: 0
Soybean (Glycine max); [20]
  Soybean plant response rating: 0
[7]; [21]
  Plant response rating, Nightshade, E. B.: 0
[7]; [22]
  Plant response rating, Nightshade, E. B.: 65
[7]; 8 g ai/ha
  Nightshade, E. B. plant response rating: 0
[7]; 16 g ai/ha
  Nightshade, E. B. plant response rating: 0
[8]; [13]
  Velvetleaf plant response rating: 0
[8]; [14]
  Velvetleaf plant response rating: 0
[8]; [15]
  Plant response rating, Velvetleaf: 0
[8]; [16]
  Plant response rating, Velvetleaf: 0
[8]; [17]
  Plant response rating, Velvetleaf: 0
[8]; [18]
  Plant response rating, Velvetleaf: 0
[8]; [19]
  Velvetleaf plant response rating: 0
[8]; [20]
  Velvetleaf plant response rating: 0
[9]; [21]
  Plant response rating, Sunflower: 0
[9]; [22]
  Plant response rating, Sunflower: 0
[9]; 8 g ai/ha
  Sunflower plant response rating: 0
[9]; 16 g ai/ha
  Sunflower plant response rating: 0
